Experiments:
[1] = test system: western corn root worm larvae; assay: Glass bead Y-tube choice test, corn volatiles versus CO2 (Example 19); parameters: species or system Diabrotica virgifera virgifera LeConte; details: in vivo
Experimental: Bioassay Procedure. All bioassays were choice tests conducted using a vertical glass “Y” tube apparatus filled with 3-mm glass beads (Bernklau and Bjostad 1998) (FIG. 62). Volatile compounds were prepared in 35-ml polyethylene syringes (cat no. 106-0490, Sherwood Medical, St. Louis, Mo.) and a syringe pump (Sage Model 355, Fisher Scientific, Pittsburgh, Pa.) was used to provide, slow (1 ml per min) consistent delivery of the compounds into each choice arm of the bioassay apparatus. Twenty newly-hatched larvae (less than 12-hours-old) were used for each bioassay. Non-diapausing larvae were used for all experiments unless otherwise indicated below. For each choice test a minimum of 10 replicates were conducted.
Corn Headspace Versus CO2. Using the glass bead bioassay (Bernklau and Bjostad 1998) the headspace over germinating corn seeds was tested in a choice test against a series of CO2 concentrations to determine if corn volatiles (including CO2) were more attractive to the larvae than CO2 alone. A 35-ml syringe was filled with the headspace over 3-day-old germinating corn seedlings by means of a 25-cm length of slender Teflon tubing inserted into a hole drilled into the cover of the tub containing the corn seedlings.
Three different concentrations of CO2 were tested on the control side of the choice test. In the 1 st test, we used ambient room air on the control side, which contains a lower concentration of CO2 than the corn headspace (approximately 1.0 mmol/mol). In the 2nd test, we used GC-MS-SIM to match the CO2 concentration in the syringe on the control side to be equal to that measured in the syringe containing corn headspace. In the 3rd test, the syringe on the control side of the choice test contained a CO2 concentration twice that measured in the corn headspace. To prepare each of these control concentrations, a 2nd 35-ml polyethylene syringe was partially filled (approximately 5 ml) from a tank containing pure (100%) CO2 using a glass syringe. Headspace from a plastic tub containing only moist germination paper was drawn into the syringe to fill it, mixing the air and CO2 thoroughly at the same time. The gas mixtures in the polyethylene syringes were allowed to equilibrate for 15 minutes, and GC-MS-SIM was used to verify the CO2 concentrations in both syringes prior to each bioassay.
Corn Headspace Versus CO2 with Diapausing Larvae. The larvae used in our studies were from a colony of nondiapausing western corn root worm that has been maintained in our laboratory since 1986. We wished to determine if diapausing western corn root worm larvae would respond differently to corn volatiles than the colony larvae. Using the same method described above, the headspace over germinating corn seeds was tested in a choice test against a series of CO2 concentrations with western corn root worm larvae from a diapausing strain.
Corn Headspace-Coated Glass Beads versus CO2. In the previous experiments, corn volatiles were introduced into the bottom of the Y-tube and carried through the glass beads by the airstream from the syringe pump. We also tested the possibility that some volatile compounds may have been removed from the airstream by coating out on the glass beads on the bottom of the Y-tube where they would not be available for the larvae to detect at the choice point near the middle of the Y-tube. […]

[2] = test system: neonate Western Corn root worm larvae; assay: Larval bioassay in soil tubs with granules; parameters: species or system Diabrotica species; details: in vivo
Experimental: The bioassay comprises a laboratory test conducted in tubs (30×15×8 cm) filled with 3000 grams of soil. A single corn seed is placed 2 cm from one end of the tub. After the corn plant is 4 days old, 30 neonate Western Corn root worm larvae are introduced into the soil in the end of the tub opposite the corn seedings. Larvae are given 24 hours to attempt to locate and attack the corn plant. Larvae are recovered from the corn plant. For granule tests, a measured amount (0.25 gram of prepared granule is mixed into 1.0 kg. of soil (20% moisture). This soil is used to fill the center ⅓ of the bioassay tub.

[3] = test system: corn root worm neonate larvae; assay: Repellence test, larvae staying on paper (FIG. 78); assay type: in vivo; details: in the presence of a feeding stimulus
Diabrotica larvae = details: Jewett and Bjostad (1996); cited from earlier work

SMILES	role in attraction of larvae to corn roots (conclusion) [1]	further results
COc1ccc2[nH]c(=O)oc2c1 [MBOA, 6-methoxy-2-benzoxazolinone]	not involved in attraction of western corn root worm larvae	–
CN1COCN(Cc2cnc(Cl)s2)/C1=N\[N+](=O)[O-] [Thiamethoxam]	–	effect on control of larvae provided by attractant granules [2]: greatly improved; repellence to neonate larvae [3]: does not repel corn root worm neonate larvae
ClCCl [dichloromethane]	–	attractiveness to larvae (Diabrotica larvae): attractive to Diabrotica larvae
CCCCC/C=C\C/C=C\CCCCCCCC(=O)O [linoleic acid]	not involved in attraction of western corn root worm larvae	–
CCCCCCCC/C=C\CCCCCCCC(=O)O [oleic acid]	not involved in attraction of western corn root worm larvae	–
CCCCCCCCCCCCCCCCCC(=O)O [stearic acid]	not involved in attraction of western corn root worm larvae	–

From US20050063956A1, “Method and device for attracting insects” (Colorado State University Research Foundation, priority 1998, published 2005)
